According to ChEMBL document CHEMBL2413072, “Synthesis and in vitro anticancer studies of novel C-2 arylidene congeners of lantadenes” (2013):

What was measured:
Assay type in all cases: functional
[1] = tested on: IGROV-1; test: Growth inhibition of human IGROV1 cells assessed as cell growth at 10^-7 M by sulforhodamine B assay; details: read-out: Activity
[2] = tested on: K562; test: Growth inhibition of human K562 cells assessed as cell growth at 10^-7 M by sulforhodamine B assay; details: read-out: Activity
[3] = Growth inhibition of human HCC2998 cells assessed as cell growth at 10^-6 M by sulforhodamine B assay; details: HCC 2998, read-out: Activity
[4] = tested on: MCF7; test: Growth inhibition of human MCF7 cells by sulforhodamine B assay
[5] = Growth inhibition of human NCI-ADR-RES cells assessed as cell growth at 10^-4 M by sulforhodamine B assay; details: read-out: Activity
[6] = tested on: SK-MEL-5; test: Growth inhibition of human SK-MEL-5 cells assessed as cell growth at 10^-4 M by sulforhodamine B assay; details: read-out: Activity
[7] = tested on: UO-31; test: Growth inhibition of human UO31 cells by sulforhodamine B assay
[8] = tested on: DU-145; test: Growth inhibition of human DU145 cells assessed as cell growth at 10^-6 M by sulforhodamine B assay; details: read-out: Activity
[9] = tested on: SW-620; test: Growth inhibition of human SW620 cells assessed as cell growth at 10^-7 M by sulforhodamine B assay; details: read-out: Activity
[10] = tested on: OVCAR-4; test: Growth inhibition of human OVCAR4 cells assessed as cell growth at 10^-7 M by sulforhodamine B assay; details: read-out: Activity
[11] = tested on: ACHN; test: Growth inhibition of human ACHN cells assessed as cell growth at 10^-8 M by sulforhodamine B assay; details: read-out: Activity
[12] = tested on: KM12; test: Growth inhibition of human KM12 cells assessed as cell growth at 10^-7 M by sulforhodamine B assay; details: read-out: Activity
[13] = tested on: HOP-92; test: Growth inhibition of human HOP92 cells assessed as cell growth at 10^-4 M by sulforhodamine B assay; details: read-out: Activity
[14] = tested on: SK-MEL-5; test: Growth inhibition of human SK-MEL-5 cells assessed as cell growth at 10^-6 M by sulforhodamine B assay; details: read-out: Activity
[15] = tested on: MDA-MB-468; test: Growth inhibition of human MDA-MB-468 cells assessed as cell growth at 10^-6 M by sulforhodamine B assay; details: read-out: Activity
[16] = tested on: HL-60(TB); test: Growth inhibition of human HL-60(TB) cells assessed as cell growth at 10^-6 M by sulforhodamine B assay; details: read-out: Activity
[17] = tested on: COLO 205; test: Growth inhibition of human COLO205 cells assessed as cell growth at 10^-4 M by sulforhodamine B assay; details: read-out: Activity
[18] = tested on: OVCAR-4; test: Growth inhibition of human OVCAR4 cells by sulforhodamine B assay
[19] = Growth inhibition of human NCI-ADR-RES cells assessed as cell growth at 10^-6 M by sulforhodamine B assay; details: read-out: Activity
[20] = tested on: MCF7; test: Growth inhibition of human MCF7 cells assessed as cell growth at 10^-4 M by sulforhodamine B assay; details: read-out: Activity
[21] = tested on: 786-0; test: Growth inhibition of human 786-0 cells assessed as cell growth at 10^-4 M by sulforhodamine B assay; details: read-out: Activity
[22] = tested on: HOP-62; test: Growth inhibition of human HOP62 cells assessed as cell growth at 10^-7 M by sulforhodamine B assay; details: read-out: Activity
[23] = tested on: SF-295; test: Growth inhibition of human SF295 cells by sulforhodamine B assay
[24] = tested on: BT-549; test: Growth inhibition of human BT549 cells assessed as cell growth at 10^-4 M by sulforhodamine B assay; details: read-out: Activity
[25] = tested on: MCF7; test: Growth inhibition of human MCF7 cells assessed as cell growth at 10^-7 M by sulforhodamine B assay; details: read-out: Activity
[26] = tested on: CCRF-CEM; test: Growth inhibition of human CCRF-CEM cells assessed as cell growth at 10^-8 M by sulforhodamine B assay; details: read-out: Activity
[27] = tested on: MOLT-4; test: Growth inhibition of human MOLT4 cells by sulforhodamine B assay
[28] = tested on: T47D; test: Growth inhibition of human T47D cells by sulforhodamine B assay
[29] = tested on: HCT-15; test: Growth inhibition of human HCT15 cells assessed as cell growth at 10^-4 M by sulforhodamine B assay; details: read-out: Activity
[30] = tested on: NCI-H226; test: Growth inhibition of human NCI-H226 cells assessed as cell growth at 10^-7 M by sulforhodamine B assay; details: read-out: Activity
[31] = tested on: CAKI-1; test: Growth inhibition of human CAKI-1 cells assessed as cell growth at 10^-8 M by sulforhodamine B assay; details: read-out: Activity
[32] = tested on: A549; test: Growth inhibition of human A549/ATCC cells assessed as cell growth at 10^-6 M by sulforhodamine B assay; details: read-out: Activity
[33] = tested on: HOP-92; test: Growth inhibition of human HOP92 cells assessed as cell growth at 10^-6 M by sulforhodamine B assay; details: read-out: Activity
[34] = tested on: NCI-H322M; test: Growth inhibition of human NCI-H322M cells assessed as cell growth at 10^-4 M by sulforhodamine B assay; details: read-out: Activity
[35] = tested on: UO-31; test: Growth inhibition of human UO31 cells assessed as cell growth at 10^-7 M by sulforhodamine B assay; details: read-out: Activity
[36] = tested on: SN12C; test: Growth inhibition of human SN12C cells assessed as cell growth at 10^-7 M by sulforhodamine B assay; details: read-out: Activity
[37] = tested on: MDA-MB-231; test: Growth inhibition of human MDA-MB-231 cells assessed as cell growth at 10^-7 M by sulforhodamine B assay; details: read-out: Activity
[38] = tested on: HT-29; test: Growth inhibition of human HT-29 cells assessed as cell growth at 10^-8 M by sulforhodamine B assay; details: read-out: Activity
[39] = tested on: OVCAR-4; test: Growth inhibition of human OVCAR4 cells assessed as cell growth at 10^-4 M by sulforhodamine B assay; details: read-out: Activity
[40] = tested on: MDA-MB-435; test: Growth inhibition of human MDA-MB-435 cells by sulforhodamine B assay
[41] = read-out: LC50 (the source's name)
[42] = read-out: pLC50 (the source's name) (converted)

`C/C=C(/C)C(=O)O[C@@H]1CC(C)(C)C[C@H]2C3=CC[C@@H]4[C@@]5(C)CCC(=O)C(C)(C)[C@@H]5CC[C@@]4(C)[C@]3(C)CC[C@@]12C(=O)O` [LANTADENE A] showed a growth at 0.1 µM [1] of 111%, a growth at 0.1 µM [2] of 100% and a growth at 1 µM [3] of 98%. For the same compound, the GI50 ([4]; read-out: GI50) was 3.6 µM, the CC50 [4, 41] was > 100 µM and the TGI ([4]; read-out: TGI) was > 100 µM. The GI50 ([4]; read-out: pGI50 (converted)) was 3.63 µM, the CC50 [4, 42] was > 100 µM and the TGI ([4]; read-out: pTGI (converted)) was > 100 µM. The growth at 100 µM [5] was 18%, the growth at 100 µM [6] was -46% and the GI50 ([7]; read-out: GI50) was 3.44 µM. The CC50 [7, 41] was > 100 µM, the TGI ([7]; read-out: TGI) was > 100 µM and the GI50 ([7]; read-out: pGI50 (converted)) was 3.47 µM. The CC50 [7, 42] was > 100 µM, the TGI ([7]; read-out: pTGI (converted)) was > 100 µM and the growth at 1 µM [8] was 102%. For the same compound, the growth at 0.1 µM [9] was 95%, the growth at 0.1 µM [10] was 95% and the growth at 0.01 µM [11] was 110%. It also gave a growth at 0.1 µM [12] of 102%, a growth at 100 µM [13] of -35% and a growth at 1 µM [14] of 58%. It also gave a growth at 1 µM [15] of 74%, a growth at 1 µM [16] of 80% and a growth at 100 µM [17] of -51%. The GI50 ([18]; read-out: GI50) was 5.64 µM, the CC50 [18, 41] was > 100 µM and the TGI ([18]; read-out: TGI) was > 100 µM. The GI50 ([18]; read-out: pGI50 (converted)) was 5.62 µM, the CC50 [18, 42] was > 100 µM and the TGI ([18]; read-out: pTGI (converted)) was > 100 µM. It also gave a growth at 1 µM [19] of 97%, a growth at 100 µM [20] of 15% and a growth at 100 µM [21] of 4%. The growth at 0.1 µM [22] was 95%, the GI50 ([23]; read-out: GI50) was 2770 nM and the CC50 [23, 41] was > 100 µM. For the same compound, the TGI ([23]; read-out: TGI) was 15.4 µM, the GI50 ([23]; read-out: pGI50 (converted)) was 2750 nM and the CC50 [23, 42] was > 100 µM. The TGI ([23]; read-out: pTGI (converted)) was 15.5 µM, the growth at 100 µM [24] was 18% and the growth at 0.1 µM [25] was 90%. The growth at 0.01 µM [26] was 98%, the GI50 ([27]; read-out: GI50) was 3.34 µM and the CC50 [27, 41] was > 100 µM. The TGI ([27]; read-out: TGI) was > 100 µM, the GI50 ([27]; read-out: pGI50 (converted)) was 3.31 µM and the CC50 [27, 42] was > 100 µM. For the same compound, the TGI ([27]; read-out: pTGI (converted)) was > 100 µM, the GI50 ([28]; read-out: GI50) was 6.15 µM and the CC50 [28, 41] was > 100 µM. For the same compound, the TGI ([28]; read-out: TGI) was > 100 µM, the GI50 ([28]; read-out: pGI50 (converted)) was 6.17 µM and the CC50 [28, 42] was > 100 µM. For the same compound, the TGI ([28]; read-out: pTGI (converted)) was > 100 µM, the growth at 100 µM [29] was 9% and the growth at 0.1 µM [30] was 81%. For the same compound, the growth at 0.01 µM [31] was 96%, the growth at 1 µM [32] was 80% and the growth at 1 µM [33] was 56%. It also gave a growth at 100 µM [34] of 17%, a growth at 0.1 µM [35] of 94% and a growth at 0.1 µM [36] of 95%. It also gave a growth at 0.1 µM [37] of 101%, a growth at 0.01 µM [38] of 99% and a growth at 100 µM [39] of 29%. For the same compound, the GI50 ([40]; read-out: GI50) was 5.24 µM, the CC50 [40, 41] was > 100 µM and the TGI ([40]; read-out: TGI) was > 100 µM. For the same compound, the GI50 ([40]; read-out: pGI50 (converted)) was 5.25 µM, the CC50 [40, 42] was > 100 µM and the TGI ([40]; read-out: pTGI (converted)) was > 100 µM.
